The results in this text go back to EP1507508B1, “COMPOSITION CONTAINING A PEPTIDE AND A PIGMENT AND THE USE THEREOF IN DARKENING THE SKIN” (JOHNSON & JOHNSON CONSUMER COMPANIES, INC., priority 2002, dated 2003).

The subject of this experiment is Dark skinned Yucatan microswine. Put plainly: Induced pigmentation in vivo, topical treatment, Fontana-Mason stained skin sections scored for pigment deposition. Particulars: average of all sites of responsive swine; topical twice a day, five days/week, eight or nine weeks; positive controls 1% (W/V), pigments 1% or 5% (W/V), peptides 250 µM or 500µM, combinations with pigments at 1%(W/V). How it is done:
Compositions were tested for their ability to induce in vivo pigmentation in skin cells in the following experiment. Dark skinned Yucatan microswine (Charles River, Portland, ME) were housed in appropriately sized cages in an environmentally controlled room with a 12-hour light - 12-hour dark photoperiod and supplied with food and water ad libitum. Animal care was based on the "Guide for the Care and Use of Laboratory Animals", NIH Publication No. 85-23. Twenty µl of test peptides were applied topically, twice a day, five days/week, for eight or nine weeks, on the dorsum of the swine. Treatments of individual swine were always arranged in a head to tail order on one side, and in a tail to head order on the other side of the animal. Biopsies were taken using standard techniques.
F&M staining identifies silver nitrate reducing molecules. In skin, this non-specific stain identifies primarily melanin. At least three sections per biopsy were processed. Each experiment was repeated at least three times.
Swine were treated with either: the known skin darkening agent forskolin (Sigma) or with a Coleus forskoli extract (ATZ Naturals, Englewood Cliffs, NJ) which contains forskolin, as a positive control at 1% (W/V); pigments at 1% or 5% (W/V); peptides at 250 µM or 500µM; and combinations of such peptides at 250 µM or 500µM with pigments at 1%(W/V). […]

With “H2-Val-Gly-Val-Ala-Pro-Gly-NH2 (H-VGVAPG-NH2) [Peptide 1]”, the Score stood at 1. The same measure for `C=C[C@@]1(C)CC(=O)[C@]2(O)[C@@]3(C)[C@@H](O)CCC(C)(C)[C@@H]3[C@H](O)[C@H](OC(C)=O)[C@@]2(C)O1` [Forskolin]: 1.
